Measured values published in patent US8975234B2, “Anti-bacterial infection, inflammation, and leukemia composition and use thereof” (priority 2011, dated 2015).

Tests used:
[1] = system: MSSA (Methicillin-susceptible Staphylococcus aureus); test: Minimum inhibitory concentration (broth microdilution) and FIC index; type: cell-based; conditions: MSSA
Description: (§1) A serial of twofold dilution of the tested antibiotics (oxacillin, erythromycin, ampicillin, kanamycin, levofoxacin, vancomycin and doxycycline) was perform by Broth microdilution method to a final concentration of 2-512 μg/mL. The bacterial overnight culture was collected and re-suspended in the Muller-Hilton (M-H) broth. An aliquot of cell suspension (OD600=0.1) was prepared. The bacterial suspensions were plated in 96-well plate and incubated with test antibiotics at 37° C. in a 5% CO2 incubator (Table 1 to Table 4).
(§2) The […], […] and antagonism between two drugs was evaluated by the following formula:
(§3) [formula] The criteria of fractional inhibitory concentration index: […]

[2] = system: standard MRSA strain (ATCC 33591); test: Minimum inhibitory concentration (broth microdilution); type: cell-based, Staphylococcus aureus; conditions: Table 1
Description: as §1

[3] = system: MRSA 18631; test: Minimum inhibitory concentration (broth microdilution) and FIC index; type: cell-based, Staphylococcus aureus
Description: as §1, §2, §3

[4] = system: MRSA 18271; test: as above; type: cell-based, Staphylococcus aureus
Description: as §1, §2, §3

[5] = system: MRSA 19615; test: as above; type: cell-based, Staphylococcus aureus
Description: as §1, §2, §3

[6] = Table 3, Tellimagrandin II (40 μg/ml) +
[7] = Table 3, 18631, Tellimagrandin II (40 μg/ml) +
[8] = Table 3, 18271, Tellimagrandin II (40 μg/ml) +
[9] = Table 3, 19615, Tellimagrandin II (40 μg/ml) +

Molecule | Minimum inhibitory concentration ([1]; Table 1) [µg/mL] | Minimum inhibitory concentration [2] [µg/mL] | Minimum inhibitory concentration ([3]; Table 1, MRSA 18631) [µg/mL] | Minimum inhibitory concentration ([4]; Table 1, MRSA 18271) [µg/mL] | Minimum inhibitory concentration ([5]; Table 1, MRSA 19615) [µg/mL] | MIC ([1]; Staphylococcus aureus) [µg/mL] | MIC [1, 6] [µg/mL] | MIC ([3]; Staphylococcus aureus, MRSA) [µg/mL] | FIC [3, 7] | MIC [3, 7] [µg/mL] | MIC ([4]; Staphylococcus aureus, MRSA) [µg/mL] | FIC [4, 8] | MIC [4, 8] [µg/mL] | MIC ([5]; Staphylococcus aureus, MRSA) [µg/mL] | FIC [5, 9] | MIC [5, 9] [µg/mL] | FIC [1, 6]
Penicillin | >512 | >512 | >512 | >512 | >512 |  |  |  |  |  |  |  |  |  |  |  | 
CN[C@H](CC(C)C)C(=O)N[C@H]1C(=O)N[C@@H](CC(N)=O)C(=O)N[C@H]2C(=O)N[C@H]3C(=O)N[C@H](C(=O)N[C@H](C(=O)O)c4cc(O)cc(O)c4-c4cc3ccc4O)[C@H](O)c3ccc(c(Cl)c3)Oc3cc2cc(c3O[C@@H]2O[C@H](CO)[C@@H](O)[C@H](O)[C@H]2O[C@H]2C[C@](C)(N)[C@H](O)[C@H](C)O2)Oc2ccc(cc2Cl)[C@H]1O [Vancomycin] |  |  |  |  |  | > 2 | >2 | 4 | 1.00 | 4 | 4 | 1.00 | 4 | 4 | 1.00 | 4 | 
CC1(C)S[C@@H]2[C@H](NC(=O)[C@H](N)c3ccccc3)C(=O)N2[C@H]1C(=O)O [Ampicillin] |  |  |  |  |  | 512 | 256 | 512 | 1.00 | 512 | 512 | 0.031 | 16 | 512 | 1.00 | 512 | 0.50
